As usually defined, the viability, T/C is the result in the treated group divided by that in the control group, in per cent.
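Further: spheroids exposed to agents for seven days before reading; 100% = DMSO vehicle wells so lower means fewer viable cells.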

In one test the test system is KRAS-mutant PDC tumor spheroid with HUVEC/MSC, viability. Nature of the test: Anticancer human tumor 327498-153-R-J2-PDC patient-derived uterine carcinosarcoma cell line growth inhibition [KRAS2]. The following applies: second compound 1 µM; first compound 0.01 µM; stronger effect = lower value. Put shortly: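 Combination screen of spheroid viability in tumor-cell co-cultures with endothelial (HUVEC) and mesenchymal stem cell stroma. Each agent was tested in half-log dilutions, topping at clinical Cmax or at 10 microM without a known Cmax.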
For `CCN1CCN(Cc2ccc(Nc3ncc(F)c(-c4cc(F)c5nc(C)n(C(C)C)c5c4)n3)nc2)CC1` + COc1cc2nc(C)nc(NC(C)c3cc(N)cc(C(F)(F)F)c3)c2cc1OC1CCOC1, the viability, T/C is 37.8%.

Still in this test, the particulars now being: second compound 1 µM; first compound 0.0316 µM; stronger effect = lower value.
Consider `CC1COCCN1c1cc(-c2ccnn2C)c2ccnc(-c3ccn[nH]3)c2n1` (centres undefined) + COc1cc2nc(C)nc(NC(C)c3cc(N)cc(C(F)(F)F)c3)c2cc1OC1CCOC1, for which the viability, T/C was 30.1%.
Still for that read-out and setting: the same measure for `CC1OCC2(CCN(c3cnc(Sc4ccnc(N)c4Cl)c(N)n3)CC2)C1N` (centres undefined) + COc1cc2nc(C)nc(NC(C)c3cc(N)cc(C(F)(F)F)c3)c2cc1OC1CCOC1: 61.6%; for `CCN1CCN(Cc2ccc(Nc3ncc(F)c(-c4cc(F)c5nc(C)n(C(C)C)c5c4)n3)nc2)CC1` + COc1cc2nc(C)nc(NC(C)c3cc(N)cc(C(F)(F)F)c3)c2cc1OC1CCOC1: 33%.
In the case of `CCNC(=O)CC1N=C(c2ccc(Cl)cc2)c2cc(OC)ccc2-n2c(C)nnc21` (centres undefined) + COc1cc2nc(C)nc(NC(C)c3cc(N)cc(C(F)(F)F)c3)c2cc1OC1CCOC1, the viability, T/C is 75.6%.
The same measure, in the same setting: the same measure for `Cn1nccc1Nc1nccc(-c2cc3c(s2)C(C)(C)N(CCN2CCOCC2)C3=O)n1` + COc1cc2nc(C)nc(NC(C)c3cc(N)cc(C(F)(F)F)c3)c2cc1OC1CCOC1: 67.8%.

The same test, now with this note: second compound 1 µM; first compound 0.1 µM; stronger effect = lower value.
With `CC1COCCN1c1cc(-c2ccnn2C)c2ccnc(-c3ccn[nH]3)c2n1` (centres undefined) + COc1cc2nc(C)nc(NC(C)c3cc(N)cc(C(F)(F)F)c3)c2cc1OC1CCOC1, the viability, T/C is 10.6%.
On the same count and under the same terms, under `CC1OCC2(CCN(c3cnc(Sc4ccnc(N)c4Cl)c(N)n3)CC2)C1N` (centres undefined) + COc1cc2nc(C)nc(NC(C)c3cc(N)cc(C(F)(F)F)c3)c2cc1OC1CCOC1 stands 50.2%; under `CCN1CCN(Cc2ccc(Nc3ncc(F)c(-c4cc(F)c5nc(C)n(C(C)C)c5c4)n3)nc2)CC1` + COc1cc2nc(C)nc(NC(C)c3cc(N)cc(C(F)(F)F)c3)c2cc1OC1CCOC1, 30%.
The same measure, in the same setting: the same measure for `CCNC(=O)CC1N=C(c2ccc(Cl)cc2)c2cc(OC)ccc2-n2c(C)nnc21` (centres undefined) + COc1cc2nc(C)nc(NC(C)c3cc(N)cc(C(F)(F)F)c3)c2cc1OC1CCOC1: 75.2%; for `Cn1nccc1Nc1nccc(-c2cc3c(s2)C(C)(C)N(CCN2CCOCC2)C3=O)n1` + COc1cc2nc(C)nc(NC(C)c3cc(N)cc(C(F)(F)F)c3)c2cc1OC1CCOC1: 65.9%.

Staying with this test, now noted: second compound 1 µM; first compound 0.316 µM; stronger effect = lower value.
With `CC1COCCN1c1cc(-c2ccnn2C)c2ccnc(-c3ccn[nH]3)c2n1` (centres undefined) + COc1cc2nc(C)nc(NC(C)c3cc(N)cc(C(F)(F)F)c3)c2cc1OC1CCOC1, the viability, T/C was 5.67%.
Still for that read-out and setting: under `CC1OCC2(CCN(c3cnc(Sc4ccnc(N)c4Cl)c(N)n3)CC2)C1N` (centres undefined) + COc1cc2nc(C)nc(NC(C)c3cc(N)cc(C(F)(F)F)c3)c2cc1OC1CCOC1 stands 39.6%; under `CCN1CCN(Cc2ccc(Nc3ncc(F)c(-c4cc(F)c5nc(C)n(C(C)C)c5c4)n3)nc2)CC1` + COc1cc2nc(C)nc(NC(C)c3cc(N)cc(C(F)(F)F)c3)c2cc1OC1CCOC1, 39.5%.
`CCNC(=O)CC1N=C(c2ccc(Cl)cc2)c2cc(OC)ccc2-n2c(C)nnc21` (centres undefined) + COc1cc2nc(C)nc(NC(C)c3cc(N)cc(C(F)(F)F)c3)c2cc1OC1CCOC1: the viability, T/C is 52.7%.
In the case of `Cn1nccc1Nc1nccc(-c2cc3c(s2)C(C)(C)N(CCN2CCOCC2)C3=O)n1` + COc1cc2nc(C)nc(NC(C)c3cc(N)cc(C(F)(F)F)c3)c2cc1OC1CCOC1, the viability, T/C is 53.7%.

Staying with this test, now noted: second compound 1 µM; first compound 1 µM; stronger effect = lower value.
For the compound `CC1COCCN1c1cc(-c2ccnn2C)c2ccnc(-c3ccn[nH]3)c2n1` (centres undefined) + COc1cc2nc(C)nc(NC(C)c3cc(N)cc(C(F)(F)F)c3)c2cc1OC1CCOC1, the viability, T/C is 7.04%.
With `CC1OCC2(CCN(c3cnc(Sc4ccnc(N)c4Cl)c(N)n3)CC2)C1N` (centres undefined) + COc1cc2nc(C)nc(NC(C)c3cc(N)cc(C(F)(F)F)c3)c2cc1OC1CCOC1, the viability, T/C was 32.8%.
Still for that read-out and setting: the same measure for `CCN1CCN(Cc2ccc(Nc3ncc(F)c(-c4cc(F)c5nc(C)n(C(C)C)c5c4)n3)nc2)CC1` + COc1cc2nc(C)nc(NC(C)c3cc(N)cc(C(F)(F)F)c3)c2cc1OC1CCOC1: 42.8%; for `CCNC(=O)CC1N=C(c2ccc(Cl)cc2)c2cc(OC)ccc2-n2c(C)nnc21` (centres undefined) + COc1cc2nc(C)nc(NC(C)c3cc(N)cc(C(F)(F)F)c3)c2cc1OC1CCOC1: 22.6%; for `Cn1nccc1Nc1nccc(-c2cc3c(s2)C(C)(C)N(CCN2CCOCC2)C3=O)n1` + COc1cc2nc(C)nc(NC(C)c3cc(N)cc(C(F)(F)F)c3)c2cc1OC1CCOC1: 49.4%.

The test is the same for the next values; noted with them: second compound 1 µM; first compound 3.16 µM; stronger effect = lower value.
For the compound `CC1COCCN1c1cc(-c2ccnn2C)c2ccnc(-c3ccn[nH]3)c2n1` (centres undefined) + COc1cc2nc(C)nc(NC(C)c3cc(N)cc(C(F)(F)F)c3)c2cc1OC1CCOC1, the viability, T/C is 4.67%.
Regarding `CC1OCC2(CCN(c3cnc(Sc4ccnc(N)c4Cl)c(N)n3)CC2)C1N` (centres undefined) + COc1cc2nc(C)nc(NC(C)c3cc(N)cc(C(F)(F)F)c3)c2cc1OC1CCOC1, the viability, T/C is 27.8%.
The same measure, in the same setting: under `CCNC(=O)CC1N=C(c2ccc(Cl)cc2)c2cc(OC)ccc2-n2c(C)nnc21` (centres undefined) + COc1cc2nc(C)nc(NC(C)c3cc(N)cc(C(F)(F)F)c3)c2cc1OC1CCOC1 stands 20.4%.
Turning to `Cn1nccc1Nc1nccc(-c2cc3c(s2)C(C)(C)N(CCN2CCOCC2)C3=O)n1` + COc1cc2nc(C)nc(NC(C)c3cc(N)cc(C(F)(F)F)c3)c2cc1OC1CCOC1, the viability, T/C is 41.1%.

The same test, now with this note: second compound 1 µM; first compound 10 µM; stronger effect = lower value.
As to `CC1OCC2(CCN(c3cnc(Sc4ccnc(N)c4Cl)c(N)n3)CC2)C1N` (centres undefined) + COc1cc2nc(C)nc(NC(C)c3cc(N)cc(C(F)(F)F)c3)c2cc1OC1CCOC1, the viability, T/C was 22.7%.
Still for that read-out and setting: the same measure for `CCNC(=O)CC1N=C(c2ccc(Cl)cc2)c2cc(OC)ccc2-n2c(C)nnc21` (centres undefined) + COc1cc2nc(C)nc(NC(C)c3cc(N)cc(C(F)(F)F)c3)c2cc1OC1CCOC1: 18.2%; for `Cn1nccc1Nc1nccc(-c2cc3c(s2)C(C)(C)N(CCN2CCOCC2)C3=O)n1` + COc1cc2nc(C)nc(NC(C)c3cc(N)cc(C(F)(F)F)c3)c2cc1OC1CCOC1: 33%.

Still in this test, the particulars now being: second compound 3.16 µM; first compound 0.00316 µM; stronger effect = lower value.
Turning to `CCN1CCN(Cc2ccc(Nc3ncc(F)c(-c4cc(F)c5nc(C)n(C(C)C)c5c4)n3)nc2)CC1` + COc1cc2nc(C)nc(NC(C)c3cc(N)cc(C(F)(F)F)c3)c2cc1OC1CCOC1, the viability, T/C was 56.4%.

Still in this test, the particulars now being: second compound 3.16 µM; first compound 0.01 µM; stronger effect = lower value.
On to `CC1COCCN1c1cc(-c2ccnn2C)c2ccnc(-c3ccn[nH]3)c2n1` (centres undefined) + COc1cc2nc(C)nc(NC(C)c3cc(N)cc(C(F)(F)F)c3)c2cc1OC1CCOC1, for which the viability, T/C is 57.9%.
Same read-out and setting: the same measure for `CCN1CCN(Cc2ccc(Nc3ncc(F)c(-c4cc(F)c5nc(C)n(C(C)C)c5c4)n3)nc2)CC1` + COc1cc2nc(C)nc(NC(C)c3cc(N)cc(C(F)(F)F)c3)c2cc1OC1CCOC1: 34.5%.

Still in this test, the particulars now being: second compound 3.16 µM; first compound 0.0316 µM; stronger effect = lower value.
On to `CC1COCCN1c1cc(-c2ccnn2C)c2ccnc(-c3ccn[nH]3)c2n1` (centres undefined) + COc1cc2nc(C)nc(NC(C)c3cc(N)cc(C(F)(F)F)c3)c2cc1OC1CCOC1, for which the viability, T/C is 25.2%.
The same measure, in the same setting: the same measure for `CC1OCC2(CCN(c3cnc(Sc4ccnc(N)c4Cl)c(N)n3)CC2)C1N` (centres undefined) + COc1cc2nc(C)nc(NC(C)c3cc(N)cc(C(F)(F)F)c3)c2cc1OC1CCOC1: 58%; for `CCN1CCN(Cc2ccc(Nc3ncc(F)c(-c4cc(F)c5nc(C)n(C(C)C)c5c4)n3)nc2)CC1` + COc1cc2nc(C)nc(NC(C)c3cc(N)cc(C(F)(F)F)c3)c2cc1OC1CCOC1: 31%.
On the same count and under the same terms, under `CCNC(=O)CC1N=C(c2ccc(Cl)cc2)c2cc(OC)ccc2-n2c(C)nnc21` (centres undefined) + COc1cc2nc(C)nc(NC(C)c3cc(N)cc(C(F)(F)F)c3)c2cc1OC1CCOC1 stands 75%; under `Cn1nccc1Nc1nccc(-c2cc3c(s2)C(C)(C)N(CCN2CCOCC2)C3=O)n1` + COc1cc2nc(C)nc(NC(C)c3cc(N)cc(C(F)(F)F)c3)c2cc1OC1CCOC1, 64.4%.

Staying with this test, now noted: second compound 3.16 µM; first compound 0.1 µM; stronger effect = lower value.
For `CC1COCCN1c1cc(-c2ccnn2C)c2ccnc(-c3ccn[nH]3)c2n1` (centres undefined) + COc1cc2nc(C)nc(NC(C)c3cc(N)cc(C(F)(F)F)c3)c2cc1OC1CCOC1, the viability, T/C is 6.64%.
For the compound `CC1OCC2(CCN(c3cnc(Sc4ccnc(N)c4Cl)c(N)n3)CC2)C1N` (centres undefined) + COc1cc2nc(C)nc(NC(C)c3cc(N)cc(C(F)(F)F)c3)c2cc1OC1CCOC1, the viability, T/C is 43.3%.
On the same count and under the same terms, under `CCN1CCN(Cc2ccc(Nc3ncc(F)c(-c4cc(F)c5nc(C)n(C(C)C)c5c4)n3)nc2)CC1` + COc1cc2nc(C)nc(NC(C)c3cc(N)cc(C(F)(F)F)c3)c2cc1OC1CCOC1 stands 29.9%.
For the compound `CCNC(=O)CC1N=C(c2ccc(Cl)cc2)c2cc(OC)ccc2-n2c(C)nnc21` (centres undefined) + COc1cc2nc(C)nc(NC(C)c3cc(N)cc(C(F)(F)F)c3)c2cc1OC1CCOC1, the viability, T/C was 56%.
Same read-out and setting: the same measure for `Cn1nccc1Nc1nccc(-c2cc3c(s2)C(C)(C)N(CCN2CCOCC2)C3=O)n1` + COc1cc2nc(C)nc(NC(C)c3cc(N)cc(C(F)(F)F)c3)c2cc1OC1CCOC1: 57%.

Staying with this test, now noted: second compound 3.16 µM; first compound 0.316 µM; stronger effect = lower value.
Regarding `CC1COCCN1c1cc(-c2ccnn2C)c2ccnc(-c3ccn[nH]3)c2n1` (centres undefined) + COc1cc2nc(C)nc(NC(C)c3cc(N)cc(C(F)(F)F)c3)c2cc1OC1CCOC1, the viability, T/C was 3.75%.
Still for that read-out and setting: the same measure for `CC1OCC2(CCN(c3cnc(Sc4ccnc(N)c4Cl)c(N)n3)CC2)C1N` (centres undefined) + COc1cc2nc(C)nc(NC(C)c3cc(N)cc(C(F)(F)F)c3)c2cc1OC1CCOC1: 39.6%; for `CCN1CCN(Cc2ccc(Nc3ncc(F)c(-c4cc(F)c5nc(C)n(C(C)C)c5c4)n3)nc2)CC1` + COc1cc2nc(C)nc(NC(C)c3cc(N)cc(C(F)(F)F)c3)c2cc1OC1CCOC1: 34.6%.

Values taken from PubChem BioAssay AID1963867 (Molecular Pharmacology Branch, DTP, NCI, 2024).
